In series [1] the test system is THP-1. Description: Induction of cGAS degradation in human THP-1 cells at 10 uM preincubated with compound for 40 hrs followed by HT-DNA stimulation and measured after 8 hrs by Western blot analysis relative to control. Format: cell-based. To be noted: time 48.0 hrs.
The target in series [2] is T1, Protein cereblon/Cyclic GMP-AMP synthase (Homo sapiens, UniProt Q96SW2+Q8N884). Description: PROTAC activity at CRBN/cGAS in human THP-1 cells assessed as induction of cGAS degradation at 10 uM incubated for 48 hrs by Western blot analysis. It is filed as cell-based. In general terms: Immunoblotting shows a protein as a band on a membrane.
Series [3] in a line: Inhibition of dsDNA-induced cGAS signaling pathway in mouse RAW-Lucia ISG cells preincubated with compound for 24 hrs followed by HT-DNA addition and measured after 24 hrs by QUANTI-Luc luciferase reagent based assay. Format: cell-based.
Series [4] relates to THP-1. Description: Cytotoxicity against human THP-1 cells assessed as reduction in cell viability at >30 uM incubated for 48 hrs by CCK8 assay. Format: toxicity, cell-based. Conditions: thp-1, 48 h.
In series [5] the target is T2, Protein cereblon/Cyclic GMP-AMP synthase (Mus musculus) (UniProt Q8C6L5+Q8C7D2). Description: In vivo inhibition of cGAS signaling pathway in DSS-induced ulcerative colitis C57BL/6 mouse model assessed as reduction in cGAS protein level in colon at 50 mg/kg/day, ip preadministered with DSS for 7 days followed by replacement with ultrapure water for 3 days with subsequent compound administration starting from day 4 to 10 and measured on day 11 by Western blot analysis. Format: functional, organism-based. To be noted: time 8.0 day.

Series [6] in a line: Inhibition of dsDNA-induced cGAS signaling pathway in human THP1-Lucia ISG cells preincubated with compound for 24 hrs followed by HT-DNA addition and measured after 24 hrs by QUANTI-Luc luciferase reagent based assay. It is filed as cell-based.
The subject of series [7] is Mus musculus. Description: Anti-inflammatory activity in DSS-induced ulcerative colitis C57BL/6 mouse model assessed as reduction in NET generation by measuring reduction in citH3 level in colon at 50 mg/kg/day, ip preadministered with DSS for 7 days followed by replacement with ultrapure water for 3 days with subsequent compound administration starting from day 4 to 10 and measured on day 11 by Western blot analysis. It is filed as functional, organism-based. Conditions: time 8.0 day.

Series [8] relates to Mus musculus. Description: Anti-inflammatory activity in DSS-induced ulcerative colitis C57BL/6 mouse model assessed as reduction in NET generation by measuring reduction in citH3 level in colon at 200 mg/kg/day, po preadministered with DSS for 7 days followed by replacement with ultrapure water for 3 days with subsequent compound administration starting from day 4 to 10 and measured on day 11 by Western blot analysis. Format: functional, organism-based. To be noted: time 8.0 day.

The target of series [9] is T2, Protein cereblon/Cyclic GMP-AMP synthase (Mus musculus). Description: In vivo inhibition of cGAS signaling pathway in DSS-induced ulcerative colitis C57BL/6 mouse model assessed as reduction in cGAS protein level in colon at 200 mg/kg/day, po preadministered with DSS for 7 days followed by replacement with ultrapure water for 3 days with subsequent compound administration starting from day 4 to 10 and measured on day 11 by Western blot analysis. Format: functional, organism-based. To be noted: time 8.0 day.

Series [10] addresses T1, Protein cereblon/Cyclic GMP-AMP synthase. Description: PROTAC activity at CRBN/cGAS in human THP-1 cells assessed as induction of cGAS degradation at 10 uM preincubated with compound for 40 hrs followed by HT-DNA stimulation and measured after 8 hrs by Western blot analysis relative to control. It is filed as cell-based. Conditions: time 48.0 hrs.

Active and inactive are the calls of the source. No cut-off for these calls is given here.

T1 sequence (Q8N884 whole entry, looked up): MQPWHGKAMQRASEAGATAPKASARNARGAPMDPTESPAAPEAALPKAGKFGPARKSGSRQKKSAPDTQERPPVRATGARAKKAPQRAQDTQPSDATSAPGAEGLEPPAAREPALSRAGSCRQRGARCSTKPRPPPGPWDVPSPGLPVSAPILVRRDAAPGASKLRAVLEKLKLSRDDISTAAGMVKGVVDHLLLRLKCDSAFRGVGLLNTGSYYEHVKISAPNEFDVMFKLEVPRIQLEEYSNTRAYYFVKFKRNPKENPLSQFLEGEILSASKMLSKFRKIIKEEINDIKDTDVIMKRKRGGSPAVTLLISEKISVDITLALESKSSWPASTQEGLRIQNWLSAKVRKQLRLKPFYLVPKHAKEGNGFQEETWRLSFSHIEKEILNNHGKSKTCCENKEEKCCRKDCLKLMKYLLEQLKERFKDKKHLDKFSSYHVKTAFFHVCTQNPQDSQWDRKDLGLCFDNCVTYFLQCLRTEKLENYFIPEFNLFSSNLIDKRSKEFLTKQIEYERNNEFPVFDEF
T1 sequence (Q96SW2 whole entry, looked up): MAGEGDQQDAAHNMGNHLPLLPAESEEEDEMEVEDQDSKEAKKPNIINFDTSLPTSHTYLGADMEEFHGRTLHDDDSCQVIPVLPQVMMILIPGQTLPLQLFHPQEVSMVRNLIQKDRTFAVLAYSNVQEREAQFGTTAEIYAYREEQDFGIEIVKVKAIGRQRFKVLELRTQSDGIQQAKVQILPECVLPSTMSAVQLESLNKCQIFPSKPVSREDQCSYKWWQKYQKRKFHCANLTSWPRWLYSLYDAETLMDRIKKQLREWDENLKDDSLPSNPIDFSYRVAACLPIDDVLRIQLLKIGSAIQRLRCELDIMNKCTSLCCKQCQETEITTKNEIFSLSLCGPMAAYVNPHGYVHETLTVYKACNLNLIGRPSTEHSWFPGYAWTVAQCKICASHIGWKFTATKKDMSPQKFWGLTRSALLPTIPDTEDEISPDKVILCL
T2 sequence (Q8C6L5 whole entry, looked up): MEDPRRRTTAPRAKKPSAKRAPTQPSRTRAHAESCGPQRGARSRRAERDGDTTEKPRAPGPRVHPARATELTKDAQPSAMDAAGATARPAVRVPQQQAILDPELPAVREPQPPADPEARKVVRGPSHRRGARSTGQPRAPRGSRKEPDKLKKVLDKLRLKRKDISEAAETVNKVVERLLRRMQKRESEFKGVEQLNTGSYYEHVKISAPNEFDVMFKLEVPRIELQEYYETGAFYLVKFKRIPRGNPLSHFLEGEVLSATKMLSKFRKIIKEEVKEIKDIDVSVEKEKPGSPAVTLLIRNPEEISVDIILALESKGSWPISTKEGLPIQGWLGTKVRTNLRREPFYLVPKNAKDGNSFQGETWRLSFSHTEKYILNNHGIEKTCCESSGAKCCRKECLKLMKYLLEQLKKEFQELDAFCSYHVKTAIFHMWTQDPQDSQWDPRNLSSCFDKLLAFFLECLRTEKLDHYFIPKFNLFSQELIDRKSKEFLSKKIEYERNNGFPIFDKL
T2 sequence (Q8C7D2 whole entry, looked up): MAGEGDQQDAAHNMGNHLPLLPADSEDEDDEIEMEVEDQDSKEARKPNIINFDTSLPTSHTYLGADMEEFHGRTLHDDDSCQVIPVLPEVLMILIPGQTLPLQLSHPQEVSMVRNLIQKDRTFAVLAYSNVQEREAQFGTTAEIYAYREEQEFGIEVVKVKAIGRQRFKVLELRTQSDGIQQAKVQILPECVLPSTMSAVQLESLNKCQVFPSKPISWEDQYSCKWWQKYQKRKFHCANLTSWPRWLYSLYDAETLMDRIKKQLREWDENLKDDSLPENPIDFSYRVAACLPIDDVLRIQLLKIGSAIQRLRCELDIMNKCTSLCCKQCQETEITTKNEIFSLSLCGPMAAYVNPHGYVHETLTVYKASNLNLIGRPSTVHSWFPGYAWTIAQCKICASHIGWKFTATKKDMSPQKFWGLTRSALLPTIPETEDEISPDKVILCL

As usually defined, the IC50 is the concentration at which inhibition is half-maximal. Consider `Cn1ccc(-c2cc(Cl)c(Cl)c3[nH]c4c(c23)CN(C(=O)CO)CC4)n1`, for which the figures for the Activity in the series with THP-1 [1] and with THP-1 [4] were 8.3% and “Toxic”, respectively. In series [2], the result was inactive. Also, the values for the IC50 in series [3] and in series [6] were 13.1 µM and 4.1 µM, respectively. For the same compound, the inhibition entry in series [5] was “Active; Minor Changes Observed”. Besides, the outcome in the series with Mus musculus [7] was Active.
For `Nc1ccc(O)c(C(=O)O)c1`, in the series on Mus musculus [8], the outcome was Active. For the same compound, the inhibition entry in series [9] is “Active; Minor Changes Observed”.
For the compound `CN1C(=O)CCC(N2Cc3c(C#CCCCC(=O)NCC(=O)N4CCc5[nH]c6c(Cl)c(Cl)cc(-c7ccn(C)n7)c6c5C4)cccc3C2=O)C1=O` (stereo not given), in series [2], the outcome was inactive.
On to `O=C1CCC(N2C(=O)c3cccc(NCCCCCC(=O)N4CC(Cn5cc(-c6cc(Cl)c(Cl)c7[nH]c8c(c67)CN(C(=O)CO)CC8)cn5)C4)c3C2=O)C(=O)N1` (stereo not given), for which the half-maximal inhibitory concentration (IC50) in series [3] and in series [6] was above 50 µM each time. The Activity in [10] stood at 36.3%.
For the compound `Cn1ccc(-c2cc(Cl)c(Cl)c3[nH]c4c(c23)CN(C(=O)CNC(=O)CCCCCCCCCCNc2cccc3c2C(=O)N(C2CCC(=O)NC2=O)C3=O)CC4)n1` (stereo not given), the figures for the 50% inhibitory concentration (IC50) in series [3] and in series [6] were above 50 µM and 38.8 µM, respectively. For the same compound, the Activity in [10] was 20.4%.
As to `Nc1cccc2c1CN(C1CCC(=O)NC1=O)C2=O` (stereo not given) [LENALIDOMIDE], the Activity with THP-1 [1] is 0.3%. For the same compound, the concentration for half-maximal inhibition (IC50) in [3] and in series [6] was above 50 µM each time.
Regarding `Cn1ccc(-c2cc(Cl)c(Cl)c3[nH]c4c(c23)CN(C(=O)CNC(=O)CCCCCCCCCCCNc2cccc3c2C(=O)N(C2CCC(=O)NC2=O)C3=O)CC4)n1` (stereo not given), the 50% inhibitory concentration (IC50) in series [3] and in [6] was above 50 µM in each case. Moreover, in [10], the Activity worked out at 4.3%.
Consider `Cn1ccc(-c2cc(Cl)c(Cl)c3[nH]c4c(c23)CN(C(=O)CNC(=O)CCCCCCCCCNc2cccc3c2C(=O)N(C2CCC(=O)NC2=O)C3=O)CC4)n1` (stereo not given), for which the half-maximal inhibitory concentration (IC50) in series [3] and in series [6] was above 50 µM in each case. In addition, the Activity in [10] was 12.4%.

The values are drawn from ChEMBL document CHEMBL6103619, “Discovery of a Novel CRBN-Recruiting cGAS PROTAC Degrader for the Treatment of Ulcerative Colitis” (J Med Chem, 2025).
